Data published in patent publication US7968595B2, “Substituted 4-aryl-chromene as activator of caspases and inducer of apoptosis and as antivascular agent and the use thereof” (Cytovia, Inc., priority 2006, dated 2011).

Columns and labels:
T-47D = experiment: Caspase activation assay in T-47D cells; assay type: cell-based; conditions: Homo sapiens; T47D cells, 24 h incubation; read-out: Caspase activation potency EC50 T47D
Description: (§1) Human breast cancer cell lines T-47D and ZR-75-1, human colon cancer cell line DLD-1 and human non-small cell lung cancer cell line H1299 were grown according to media component mixtures designated by American Type Culture Collection+10% FCS (Invitrogen Corporation), in a 5% CO2−95% humidity incubator at 37° C. T-47D and ZR-75-1 cells were maintained at a cell density between 30 and 80% confluency at a cell density of 0.1 to 0.6×10^6 cells/mL. Cells were harvested at 600×g and resuspended at 0.65×10^6 cells/mL into appropriate media+10% FCS. An aliquot of […] of cells was added to a well of a 96-well microtiter plate containing 5 μl of a 10% DMSO in RPMI-1640 media solution containing about 0.16 to 10 μM of 2,7,8-triamino-4-(3-bromo-4,5-dimethoxy-phenyl)-3-cyano-4H-chromene (1) or other test compounds (0.016 to 1 μM final). An aliquot of 45 μl of cells was added to a well of a 96-well microtiter plate containing 5 μl of a 10% DMSO in RPMI-1640 media solution without test compound as the control sample. The samples were mixed by agitation and then incubated at 37° C. for 24 h in a 5% CO2−95% humidity incubator. After incubation, the samples were removed from the incubator and 50 μl of a solution containing 20 μM of N-(Ac-DEVD)-N′-ethoxycarbonyl-R110 (SEQ ID No:1) fluorogenic substrate (Cytovia, Inc.; U.S. Pat. No. 6,335,429), 20% sucrose (Sigma), 20 mM DTT (Sigma), 200 mM NaCl (Sigma), 40 mM Na PIPES buffer pH 7.2 (Sigma), and 500 μg/ml lysolecithin (Calbiochem) was added. The samples were mixed by agitation and incubated at room temperature. Using a fluorescent plate reader (Model 1420 Wallac Instruments), an initial reading (T=0) was made about 1-2 min after addition of the substrate solution, employing excitation at 485 nm and emission at 530 nm, to determine the background fluorescence of the control sample. After the 3 h incubation, the samples were read for fluorescence as above (T=3 h).
(§2) The Relative Fluorescence Unit values (RFU) were used to calculate the sample readings as follows: RFU(T=3h)−Control RFU(T=0)=Net RFU(T=3h)
(§3) The activity of caspase cascade activation was determined by the ratio of the net RFU value for 2,7,8-triamino-4-(3-bromo-4,5-dimethoxy-phenyl)-3-cyano-4H-chromene or other test compound to that of control samples. The EC50 (nM) was determined by a sigmoidal dose-response calculation (Prism 2.0, GraphPad Software Inc.).

ZR-75-1 = experiment: Caspase activation assay in ZR-75-1 cells; assay type: cell-based; conditions: Homo sapiens, ZR751 cells, 24 h incubation, read-out: Caspase activation potency EC50 ZR751
Description: as §1, with “After incubation, the samples were removed from the incubator and 50 μl of a solution containing 20 μM of N-(Ac-DEVD)-N′-ethoxycarbonyl-R110 (SEQ ID No:1) fluorogenic substrate (Cytovia, Inc.; U.S. Pat. No. 6,335,429), 20% sucrose (Sigma), 20 mM DTT (Sigma), 200 mM NaCl (Sigma), 40 mM Na PIPES buffer pH 7.2 (Sigma), and 500 μg/ml lysolecithin (Calbiochem) was added. The samples were mixed by agitation and incubated at room temperature.” left out
as §2, §3

DLD-1 = experiment: Caspase activation assay in DLD-1 cells; assay type: cell-based; conditions: Homo sapiens, 24 h incubation, read-out: Caspase activation potency EC50 DLD-1
Description: as §1, with “After incubation, the samples were removed from the incubator and 50 μl of a solution containing 20 μM of N-(Ac-DEVD)-N′-ethoxycarbonyl-R110 (SEQ ID No:1) fluorogenic substrate (Cytovia, Inc.; U.S. Pat. No. 6,335,429), 20% sucrose (Sigma), 20 mM DTT (Sigma), 200 mM NaCl (Sigma), 40 mM Na PIPES buffer pH 7.2 (Sigma), and 500 μg/ml lysolecithin (Calbiochem) was added. The samples were mixed by agitation and incubated at room temperature.” left out
as §2, §3

H1299 = experiment: Caspase activation assay in H1299 cells; assay type: cell-based; conditions: Homo sapiens, NCI-H1299, 24 h incubation, read-out: Caspase activation potency EC50 H1299
Description: as §1, §2, §3

MX-1 = experiment: Inhibition of cell proliferation (GI50), MX-1; assay type: cell-based; conditions: Homo sapiens; MX1 cells, 72 h, CellTiter-Glo
Description: (§4) Human breast cancer cells MX-1 and MDAMB435, hepatocarcinoma cells SNU398, colon cancer cells HCT116 and HeLa cells were grown and harvested as in Example 7. An aliquot of […] of cells (4.4×10^4 cells/mL) was added to a well of a 96-well microtiter plate containing 5 μL of a 10% DMSO in RPMI-1640 media solution containing 10 nM to 100 μM of R(−)-2,7,8-triamino-4-(3-bromo-4,5-dimethoxy-phenyl)-3-cyano-4H-chromene (1 nM to 10 μM final). An aliquot of 45 μL of cells was added to a well of a 96-well microtiter plate containing 5 μL of a 10% DMSO in RPMI-1640 media solution without compound as the control sample for maximal cell proliferation (LMax). The samples were mixed by agitation and then incubated at 37° C. for 72 h in a 5% CO2−95% humidity incubator. After incubation, the samples were removed from the incubator and 25 μL of CellTiter-Glo™ reagent (Promega) was added. The samples were mixed by agitation and incubated at room temperature for 10-15 min. Plates were then read using a luminescent plate reader (Model SPECTRAfluor Plus, Tecan) to give Ltest values.
(§5) Baseline for GI50 (dose for 50% inhibition of cell proliferation) of initial cell numbers was determined by adding an aliquot of 45 μL of cells or 45 μL of media, respectively, to wells of a 96-well microtiter plate containing 5 μL of a 10% DMSO in RPMI-1640 media solution. […]

HeLa cells = experiment: Inhibition of cell proliferation (GI50), HeLa; assay type: cell-based; conditions: Homo sapiens, 72 h, CellTiter-Glo
Description: as §4, §5

MDAMB435 = experiment: Inhibition of cell proliferation (GI50), MDAMB435; assay type: cell-based; conditions: Homo sapiens, MDA-MB-435; MDAMB435 cells, 72 h, CellTiter-Glo
Description: as §4, §5

SNU398 = experiment: Inhibition of cell proliferation (GI50), SNU398; assay type: cell-based; conditions: Homo sapiens, SNU-398; Snu398 cells, 72 h, CellTiter-Glo
Description: as §4, §5

solid tumor cells = experiment: Caspase cascade activation and induction of apoptosis, overall statement; assay type: cell-based, human; conditions: summary of Table I
Description: as §1, with “After incubation, the samples were removed from the incubator and 50 μl of a solution containing 20 μM of N-(Ac-DEVD)-N′-ethoxycarbonyl-R110 (SEQ ID No:1) fluorogenic substrate (Cytovia, Inc.; U.S. Pat. No. 6,335,429), 20% sucrose (Sigma), 20 mM DTT (Sigma), 200 mM NaCl (Sigma), 40 mM Na PIPES buffer pH 7.2 (Sigma), and 500 μg/ml lysolecithin (Calbiochem) was added. The samples were mixed by agitation and incubated at room temperature.” left out
as §3

COc1cc([C@H]2C(C#N)=C(N)Oc3c2ccc(N)c3N)cc(Br)c1OC [Compound 1R, R(−)-2,7,8-triamino-4-(3-bromo-4,5-dimethoxy-phenyl)-3-cyano-4H-chromene]
EC50 (T-47D): 21 nM
EC50 (ZR-75-1): 19 nM
EC50 (DLD-1): 57 nM
EC50 (H1299): 62 nM
GI50 (MX-1): 17 nM
GI50 (HeLa cells): 25 nM
GI50 (MDAMB435): 9 nM
GI50 (SNU398): 28 nM
Caspase cascade activator and inducer of apoptosis (in words) (solid tumor cells): potent caspase cascade activator and inducer of apoptosis
